These results are taken from publication PMC11167047 (Cell Death Discovery, 2024).

SMILES strings stand for the structures.

Holding throughout (test): kinome screen (33PanQinase)
Holding throughout (type): biochemical

One assay has as its target T1, EPHA3 (Homo sapiens, UniProt P29320).
T1 construct: purchased Reaction Biology Europe GmbH (formerly ProQinase)
T1 sequence (P29320 21-983): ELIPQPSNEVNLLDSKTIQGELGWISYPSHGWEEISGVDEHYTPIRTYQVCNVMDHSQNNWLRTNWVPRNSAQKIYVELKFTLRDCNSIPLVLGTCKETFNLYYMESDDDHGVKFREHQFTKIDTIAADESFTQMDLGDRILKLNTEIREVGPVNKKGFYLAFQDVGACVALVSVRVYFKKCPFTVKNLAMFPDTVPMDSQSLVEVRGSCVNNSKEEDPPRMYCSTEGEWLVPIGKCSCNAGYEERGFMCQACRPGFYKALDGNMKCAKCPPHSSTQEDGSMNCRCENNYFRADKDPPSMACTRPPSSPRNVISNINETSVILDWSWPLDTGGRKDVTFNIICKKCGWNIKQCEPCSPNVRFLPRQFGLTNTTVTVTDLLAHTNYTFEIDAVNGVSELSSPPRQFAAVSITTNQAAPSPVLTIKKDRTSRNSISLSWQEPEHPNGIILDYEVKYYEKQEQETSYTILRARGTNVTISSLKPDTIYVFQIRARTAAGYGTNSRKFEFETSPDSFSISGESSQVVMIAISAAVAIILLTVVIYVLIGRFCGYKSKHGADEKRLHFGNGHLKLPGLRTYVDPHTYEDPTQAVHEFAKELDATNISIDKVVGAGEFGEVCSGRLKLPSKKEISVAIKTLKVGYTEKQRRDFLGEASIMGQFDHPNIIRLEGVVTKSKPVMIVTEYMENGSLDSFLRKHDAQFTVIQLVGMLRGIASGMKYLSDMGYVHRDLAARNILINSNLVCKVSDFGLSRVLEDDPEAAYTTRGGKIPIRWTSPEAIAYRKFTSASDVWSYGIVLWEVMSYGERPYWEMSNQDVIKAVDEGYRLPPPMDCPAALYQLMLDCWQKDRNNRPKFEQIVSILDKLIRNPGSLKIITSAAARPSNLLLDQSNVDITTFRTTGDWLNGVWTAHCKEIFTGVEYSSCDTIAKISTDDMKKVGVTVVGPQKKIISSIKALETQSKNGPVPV
How it is done: (§1) The Kinome Screening was performed by Reaction Biology Europe GmbH (http://reactionbiology.com; Freiburg i. Br., Germany).

Another assay deals with T2, NLK (Homo sapiens, UniProt Q9UBE8).
T2 construct: purchased Reaction Biology Europe GmbH (formerly ProQinase)
T2 sequence (Q9UBE8 1-527): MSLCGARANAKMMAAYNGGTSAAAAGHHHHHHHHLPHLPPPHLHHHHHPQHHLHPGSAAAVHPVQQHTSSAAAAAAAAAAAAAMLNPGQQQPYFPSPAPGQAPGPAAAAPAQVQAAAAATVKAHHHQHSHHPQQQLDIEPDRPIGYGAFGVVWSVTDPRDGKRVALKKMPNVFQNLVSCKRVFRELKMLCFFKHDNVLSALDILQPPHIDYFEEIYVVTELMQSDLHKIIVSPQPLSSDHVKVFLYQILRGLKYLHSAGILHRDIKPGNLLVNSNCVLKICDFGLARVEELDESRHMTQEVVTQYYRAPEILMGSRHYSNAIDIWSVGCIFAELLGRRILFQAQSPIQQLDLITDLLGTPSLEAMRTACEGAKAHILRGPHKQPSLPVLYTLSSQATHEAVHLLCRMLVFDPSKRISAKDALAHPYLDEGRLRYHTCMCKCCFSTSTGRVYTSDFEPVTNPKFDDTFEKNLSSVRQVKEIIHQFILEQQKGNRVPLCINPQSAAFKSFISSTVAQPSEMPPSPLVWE
How it is done: as §1

Another assay has as its target T3, LIMK1 (Homo sapiens, UniProt P53667).
T3 construct: purchased Reaction Biology Europe GmbH (formerly ProQinase)
The method, then: as §1

Another assay concerns the target T4, ZAP70 (Homo sapiens, UniProt P43403).
T4 construct: purchased Reaction Biology Europe GmbH (formerly ProQinase)
T4 sequence (P43403 1-619): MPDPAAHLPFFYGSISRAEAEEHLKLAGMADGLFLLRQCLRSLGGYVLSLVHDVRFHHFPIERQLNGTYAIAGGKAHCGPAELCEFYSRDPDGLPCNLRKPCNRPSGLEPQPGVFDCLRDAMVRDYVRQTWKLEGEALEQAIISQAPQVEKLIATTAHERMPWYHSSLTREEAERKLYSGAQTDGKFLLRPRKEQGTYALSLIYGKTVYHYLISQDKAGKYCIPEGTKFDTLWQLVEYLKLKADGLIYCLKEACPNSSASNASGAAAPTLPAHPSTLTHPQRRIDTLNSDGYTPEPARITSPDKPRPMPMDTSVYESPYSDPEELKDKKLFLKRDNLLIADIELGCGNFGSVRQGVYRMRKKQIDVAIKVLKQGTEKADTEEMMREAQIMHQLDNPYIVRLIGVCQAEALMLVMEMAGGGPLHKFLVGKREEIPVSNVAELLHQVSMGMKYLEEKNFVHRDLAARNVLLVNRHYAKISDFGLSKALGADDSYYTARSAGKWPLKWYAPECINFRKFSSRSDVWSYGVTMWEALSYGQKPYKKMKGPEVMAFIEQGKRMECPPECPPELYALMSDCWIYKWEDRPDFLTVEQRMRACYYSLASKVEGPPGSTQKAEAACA
The method, then:
as §1

The target in another assay is T5, CDK20/CycT1 (Homo sapiens, UniProt Q8IZL9).
T5 construct: purchased Reaction Biology Europe GmbH (formerly ProQinase)
The method, then: as §1

For the next assay, the target named is T6, ROCK2 (Homo sapiens, UniProt O75116).
T6 construct: purchased Reaction Biology Europe GmbH (formerly ProQinase)
How it is done: as §1

The target in a further assay is T7, MAP4K4 (Homo sapiens, UniProt O95819).
T7 construct: purchased Reaction Biology Europe GmbH (formerly ProQinase)
How it is done: as §1

The next assay addresses T8, HIPK2 (Homo sapiens, UniProt Q9H2X6).
T8 construct: purchased Reaction Biology Europe GmbH (formerly ProQinase)
How it is done:
as §1

T3 sequence (P53667 whole entry): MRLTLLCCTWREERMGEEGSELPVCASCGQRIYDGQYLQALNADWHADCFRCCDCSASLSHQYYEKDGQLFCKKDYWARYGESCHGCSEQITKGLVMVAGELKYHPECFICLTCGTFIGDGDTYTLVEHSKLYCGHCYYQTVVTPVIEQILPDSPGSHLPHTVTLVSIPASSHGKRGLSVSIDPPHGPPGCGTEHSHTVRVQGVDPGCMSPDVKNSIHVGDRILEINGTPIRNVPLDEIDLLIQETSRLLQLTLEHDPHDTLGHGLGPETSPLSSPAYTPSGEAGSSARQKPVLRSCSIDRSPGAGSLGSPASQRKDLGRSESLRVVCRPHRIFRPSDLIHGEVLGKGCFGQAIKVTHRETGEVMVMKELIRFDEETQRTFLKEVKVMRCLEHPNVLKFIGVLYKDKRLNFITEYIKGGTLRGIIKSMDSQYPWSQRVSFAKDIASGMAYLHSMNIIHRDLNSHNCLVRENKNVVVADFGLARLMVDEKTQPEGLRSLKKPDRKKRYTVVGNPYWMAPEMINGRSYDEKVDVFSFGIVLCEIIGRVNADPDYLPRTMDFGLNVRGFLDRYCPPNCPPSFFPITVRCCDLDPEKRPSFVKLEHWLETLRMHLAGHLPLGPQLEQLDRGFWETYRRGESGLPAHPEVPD
T6 sequence (O75116 whole entry): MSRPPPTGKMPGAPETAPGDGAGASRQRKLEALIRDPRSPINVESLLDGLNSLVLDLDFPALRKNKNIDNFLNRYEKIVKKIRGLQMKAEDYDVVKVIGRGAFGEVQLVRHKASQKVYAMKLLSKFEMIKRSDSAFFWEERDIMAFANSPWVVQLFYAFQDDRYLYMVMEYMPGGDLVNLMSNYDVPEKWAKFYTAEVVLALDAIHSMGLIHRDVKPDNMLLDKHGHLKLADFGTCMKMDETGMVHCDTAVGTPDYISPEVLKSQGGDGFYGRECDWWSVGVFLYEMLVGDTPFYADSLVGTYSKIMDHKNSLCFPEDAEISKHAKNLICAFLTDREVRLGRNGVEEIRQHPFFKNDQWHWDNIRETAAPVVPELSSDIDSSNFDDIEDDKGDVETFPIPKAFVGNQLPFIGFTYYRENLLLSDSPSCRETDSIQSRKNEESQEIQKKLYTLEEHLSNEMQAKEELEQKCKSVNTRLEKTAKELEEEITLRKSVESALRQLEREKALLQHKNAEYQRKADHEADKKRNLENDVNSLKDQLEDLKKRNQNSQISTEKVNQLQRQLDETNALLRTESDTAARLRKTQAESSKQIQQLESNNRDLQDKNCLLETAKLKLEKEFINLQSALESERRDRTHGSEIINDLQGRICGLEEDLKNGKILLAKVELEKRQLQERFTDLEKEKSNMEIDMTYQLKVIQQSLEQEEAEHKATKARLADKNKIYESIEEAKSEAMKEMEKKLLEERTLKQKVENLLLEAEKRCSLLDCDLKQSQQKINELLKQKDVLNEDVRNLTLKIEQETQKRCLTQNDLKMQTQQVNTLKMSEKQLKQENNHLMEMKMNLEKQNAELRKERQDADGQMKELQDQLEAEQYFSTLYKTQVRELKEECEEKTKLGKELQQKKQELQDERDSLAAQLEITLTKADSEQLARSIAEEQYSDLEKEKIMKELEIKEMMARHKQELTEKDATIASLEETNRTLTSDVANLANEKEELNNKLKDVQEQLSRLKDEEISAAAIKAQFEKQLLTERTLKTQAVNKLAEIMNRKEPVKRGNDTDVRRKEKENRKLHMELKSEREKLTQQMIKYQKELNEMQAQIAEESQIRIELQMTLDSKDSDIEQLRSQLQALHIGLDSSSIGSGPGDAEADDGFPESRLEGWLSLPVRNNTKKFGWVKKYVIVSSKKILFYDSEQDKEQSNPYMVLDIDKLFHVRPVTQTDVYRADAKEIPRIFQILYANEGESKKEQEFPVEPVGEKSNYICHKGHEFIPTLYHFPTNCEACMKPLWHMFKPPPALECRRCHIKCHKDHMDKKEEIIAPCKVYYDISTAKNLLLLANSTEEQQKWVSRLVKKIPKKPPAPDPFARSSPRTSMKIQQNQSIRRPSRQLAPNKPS
T8 sequence (Q9H2X6 whole entry): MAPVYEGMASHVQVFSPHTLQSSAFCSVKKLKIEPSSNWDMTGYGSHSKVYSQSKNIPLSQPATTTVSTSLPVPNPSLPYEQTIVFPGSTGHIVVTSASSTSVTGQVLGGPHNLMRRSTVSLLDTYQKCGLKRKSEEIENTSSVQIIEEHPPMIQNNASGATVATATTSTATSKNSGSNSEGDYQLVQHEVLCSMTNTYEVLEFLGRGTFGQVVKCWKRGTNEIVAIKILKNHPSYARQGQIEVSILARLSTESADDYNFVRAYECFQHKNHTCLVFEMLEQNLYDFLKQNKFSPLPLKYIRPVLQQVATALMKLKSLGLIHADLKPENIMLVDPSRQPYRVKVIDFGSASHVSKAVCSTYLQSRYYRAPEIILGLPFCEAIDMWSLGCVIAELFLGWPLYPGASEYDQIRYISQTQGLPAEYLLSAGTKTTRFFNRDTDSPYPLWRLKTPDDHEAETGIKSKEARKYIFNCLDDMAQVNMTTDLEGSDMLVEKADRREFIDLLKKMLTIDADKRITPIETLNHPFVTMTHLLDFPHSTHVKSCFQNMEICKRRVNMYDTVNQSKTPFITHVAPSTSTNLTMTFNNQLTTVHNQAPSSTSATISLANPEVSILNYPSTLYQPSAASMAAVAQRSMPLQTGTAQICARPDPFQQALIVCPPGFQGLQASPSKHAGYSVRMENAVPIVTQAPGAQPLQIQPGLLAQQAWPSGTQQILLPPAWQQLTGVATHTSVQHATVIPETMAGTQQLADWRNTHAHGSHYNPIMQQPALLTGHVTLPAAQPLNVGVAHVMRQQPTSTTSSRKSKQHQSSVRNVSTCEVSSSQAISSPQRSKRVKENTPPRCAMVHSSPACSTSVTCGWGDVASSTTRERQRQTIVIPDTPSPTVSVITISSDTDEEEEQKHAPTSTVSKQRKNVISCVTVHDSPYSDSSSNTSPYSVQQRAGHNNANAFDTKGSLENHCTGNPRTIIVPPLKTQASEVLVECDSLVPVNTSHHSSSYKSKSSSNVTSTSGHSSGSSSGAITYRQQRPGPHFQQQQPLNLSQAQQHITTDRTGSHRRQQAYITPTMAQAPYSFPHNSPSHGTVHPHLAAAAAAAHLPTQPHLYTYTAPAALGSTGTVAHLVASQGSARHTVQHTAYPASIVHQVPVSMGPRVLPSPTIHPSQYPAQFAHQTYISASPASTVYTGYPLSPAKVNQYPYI
T5 sequence (Q8IZL9 whole entry): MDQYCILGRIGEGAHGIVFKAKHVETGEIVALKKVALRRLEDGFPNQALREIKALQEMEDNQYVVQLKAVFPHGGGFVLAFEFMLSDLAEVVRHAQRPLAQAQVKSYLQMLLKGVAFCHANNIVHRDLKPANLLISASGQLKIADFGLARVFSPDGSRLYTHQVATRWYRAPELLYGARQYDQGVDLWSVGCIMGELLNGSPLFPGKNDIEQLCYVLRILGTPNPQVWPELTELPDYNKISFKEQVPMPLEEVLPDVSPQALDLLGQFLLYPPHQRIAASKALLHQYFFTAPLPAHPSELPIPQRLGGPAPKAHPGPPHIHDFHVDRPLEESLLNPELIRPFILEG
T5 sequence (O60563 whole entry partner): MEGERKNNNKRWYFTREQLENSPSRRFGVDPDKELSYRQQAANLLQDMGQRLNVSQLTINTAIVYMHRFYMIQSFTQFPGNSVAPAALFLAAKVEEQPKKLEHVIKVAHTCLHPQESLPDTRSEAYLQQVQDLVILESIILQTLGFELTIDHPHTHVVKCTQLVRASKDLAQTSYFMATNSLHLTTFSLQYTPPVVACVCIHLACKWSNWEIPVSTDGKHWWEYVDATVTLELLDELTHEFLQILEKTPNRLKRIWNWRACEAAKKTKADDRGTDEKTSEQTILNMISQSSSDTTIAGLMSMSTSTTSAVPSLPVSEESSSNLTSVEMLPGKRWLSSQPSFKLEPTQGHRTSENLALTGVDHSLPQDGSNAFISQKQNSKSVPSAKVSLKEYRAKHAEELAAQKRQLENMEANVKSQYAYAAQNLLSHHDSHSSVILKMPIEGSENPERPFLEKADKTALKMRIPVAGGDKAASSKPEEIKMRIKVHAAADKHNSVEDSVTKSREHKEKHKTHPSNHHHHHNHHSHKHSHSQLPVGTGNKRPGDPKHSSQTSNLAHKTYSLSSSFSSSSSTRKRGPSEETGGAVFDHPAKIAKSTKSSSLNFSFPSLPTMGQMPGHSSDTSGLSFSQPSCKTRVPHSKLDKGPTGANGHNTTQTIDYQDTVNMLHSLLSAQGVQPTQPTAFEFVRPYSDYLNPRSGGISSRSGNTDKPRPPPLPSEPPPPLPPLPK

As for `COc1ccnc2[nH]cc(-c3cc(N)nc(N)c3)c12` [meriolin 16], the residual kinase activity at EPHA3 (0.03 µM) was 102 % of control; on EPHA3 (0.3 µM), 94 % of control; at NLK (0.03 µM) it was 96 % of control; on NLK (0.3 µM) it was 81 % of control; at LIMK1 (0.03 µM), 10 % of control; on LIMK1 (0.3 µM), 3 % of control. The residual kinase activity is given as 95 % of control on ZAP70 (0.03 µM); 83 % of control on ZAP70 (0.3 µM); 36 % of control at CDK20/CycT1 (0.03 µM); 17 % of control on CDK20/CycT1 (0.3 µM); 12 % of control on ROCK2 (0.03 µM); 1 % of control at ROCK2 (0.3 µM). The residual kinase activity is 76 % of control at MAP4K4 (0.03 µM), 29 % of control on MAP4K4 (0.3 µM), 36 % of control on HIPK2 (0.03 µM) and 4 % of control at HIPK2 (0.3 µM).
On to `c1ccc(CNc2cc(-c3c[nH]c4ncccc34)ccn2)cc1` [meriolin 36], for which the residual kinase activity on EPHA3 (0.3 µM) was 111 % of control; at EPHA3 (3 µM), 103 % of control; on NLK (0.3 µM), 78 % of control; on NLK (3 µM), 29 % of control; on LIMK1 (0.3 µM), 9 % of control; at LIMK1 (3 µM), 1 % of control. Also, the residual kinase activity on ZAP70 (0.3 µM) was 110 % of control; on ZAP70 (3 µM), 85 % of control; at CDK20/CycT1 (0.3 µM) it was 19 % of control; on CDK20/CycT1 (3 µM) it was 10 % of control; at ROCK2 (0.3 µM), 1 % of control; on ROCK2 (3 µM) it was 0 % of control. In addition, the residual kinase activity is recorded as 6 % of control on MAP4K4 (0.3 µM), 2 % of control on MAP4K4 (3 µM), 22 % of control on HIPK2 (0.3 µM) and 3 % of control at HIPK2 (3 µM).
